{"source": "paper PMC12723470", "about": "“Heteromultivalent Nanogels as Highly Potent Inhibitors of Pseudomonas Aeruginosa” (Angewandte Chemie (International Ed. in English), 2025)", "test_system": "72 h mature P. aeruginosa biofilm", "test": "Mature biofilm eradication assay", "assay_type": "cell-based, Pseudomonas aeruginosa", "settings": "24 h treatment", "method": "Inspired by the results of planktonic bactericidal experiments, we further evaluated the anti‐biofilm activity of the nanogels. […] This observation further reinforces our hypothesis that heteromultivalent nanogels with glyco‐residues and the BMAP‐18 peptide contribute to the long‐term eradication of P. aeruginosa. Further, a mature biofilm eradication assay was performed. […] More than 99.9% biofilm‐coated P. aeruginosa were inactivated (Figure 4a and S10). […] Overall, biofilm inhibition experiments with different control NG, NG‐Fuc/Gal and PNG‐Fuc/Gal reveal that PNG‐Fuc/‐Gal decomposes biofilm by a binding and killing mechanism. First, they bind with bacteria surface lectins via their specific sugar ligands and then inactivate using their surface BMAPs leading to a strong reduction in the biofilm matrix.\nFigure 4 a) P. aeruginosa biofilm matrix visualization after 72 h of treatment with samples (red: biofilm matrix, scale bar = 20 µm), b) Biofilm coated‐ P. aeruginosa viability after 12 h treatment of samples. c) Mature P. aeruginosa biofilm visualization after 12 h of treatment with samples, and statistics for thickness and roughness (mean ± SD, n = 7), d) Mature P. aeruginosa biofilm visualization after 24 h of treatment with samples, and statistics for thickness and roughness (mean ± SD, n = 7). 0.01 <*p< […], 0.001 <**p < 0.01, ***p < 0.001, compared with Control group."}
{"smiles": "NC[C@H]1O[C@H](O[C@H]2[C@H](O)[C@@H](O[C@H]3O[C@H](CO)[C@@H](O)[C@H](N)[C@H]3O)[C@H](N)C[C@@H]2N)[C@H](N)C[C@@H]1O", "note": "[tobramycin]", "values": [{"measurement": "change of mature biofilm when treatment extended from 12 h to 24 h", "result": "did not show significant changes"}]}
